Experimental data taken from patent US20030068615A1, “Polypeptides that bind HIV gp120 and related nucleic acids, antibodies, compositions, and methods of use” (priority 1999, published 2003).
Read-outs that look alike come from different tables or passages of the source.

Biological target: HIV-1LAI envelope gp120 (Human immunodeficiency virus type 1 group M subtype B, UniProt P03377)
Format: binding
Conditions: for number of radioactive decays (counts) counted: human CD4 21-mer scan, empty control 2075; for Counts per 20′ Average-background: CCR5 18-mer scan; for Counts per 20′ Average-background / percentage of binding of mutant polypeptide compared to wild-type polypeptide, gp120: radiolabeled HIV-1LAI gp120; for Relative % of Control: mean of two syntheses and binding experiments ± average deviation, wild-type = 100%; for percentage of binding of mutant polypeptide compared to wild-type polypeptide, gp120: CCR5 alanine mutant peptide
[1] = CXCR4 18-mer scan, background subtracted, empty control 0
[2] = CXCR4 18-mer scan, empty control 412
[3] = Panel D, 9-mers and 12-mers of CD4, empty control […]
[4] = Panel E, 9-mers and 12-mers of CD4, empty control 571
[5] = Panel C, 15-mers and 18-mers of CD4, empty control 556
[6] = Panel B, 15-mers and 18-mers of CD4, empty control 575
[7] = STRL33 18-mer scan, background subtracted, first of two count columns
[8] = STRL33 18-mer scan, background subtracted, second of two count columns

LPYYIGISIDSFILLEII
radioactive counts recorded in twenty minutes [1]: 439 counts
radioactive counts recorded in twenty minutes [2]: 851 counts

LQGQSLTLT
COUNTS of radiolabeled gp120 retained [3]: 501 counts

LQNQKKVEF
COUNTS of radiolabeled gp120 retained [4]: 565 counts

LQNQKKVEFKID
COUNTS of radiolabeled gp120 retained [4]: 508 counts

LQNQKKVEFKIDIVV
COUNTS of radiolabeled gp120 retained [5]: 644 counts

LQNQKKVEFKIDIVVLAF
COUNTS of radiolabeled gp120 retained [5]: 938 counts

LRSMTDKYRLHLSVADLL [CXCR4 segment 69-86]
radioactive counts recorded in twenty minutes [1]: 160 counts
radioactive counts recorded in twenty minutes [2]: 572 counts

LSKGKRGGHSSVSTESES
radioactive counts recorded in twenty minutes [1]: 185 counts
radioactive counts recorded in twenty minutes [2]: 597 counts

LTANSDTHL
COUNTS of radiolabeled gp120 retained [3]: 596 counts

LTANSDTHLLQG
COUNTS of radiolabeled gp120 retained [3]: 534 counts

LTANSDTHLLQGQSL
COUNTS of radiolabeled gp120 retained [6]: 634 counts

LTANSDTHLLQGQSLTLT
COUNTS of radiolabeled gp120 retained [6]: 528 counts

LTCEVWGPTSPKLMLSLKLEN
number of radioactive decays (counts) counted: 2412 counts

LTDVFLVNLPLADLVFVC [STRL33 segment 65-82]
radioactive counts recorded in twenty minutes [7]: 233.5 counts
radioactive counts recorded in twenty minutes [8]: 336.5 counts

LTGSGELWW
COUNTS of radiolabeled gp120 retained [4]: 550 counts

LTMIVCYSVIIKTLLHAG [STRL33 segment 205-222]
radioactive counts recorded in twenty minutes [7]: 2787.5 counts
radioactive counts recorded in twenty minutes [8]: 2654.5 counts

LTSVSRGSSLKILSKGKR
radioactive counts recorded in twenty minutes [1]: 183 counts
radioactive counts recorded in twenty minutes [2]: 595 counts

LTVPFWAHYAAAQWDFGN [CCR5 segment 81-98]
Counts per 20′ Average-background (background subtracted): 306 counts per 20′

LVFFQKHIAKRFCKCCSI
Counts per 20′ Average-background (background subtracted): 76 counts per 20′

LVFGLTANS
COUNTS of radiolabeled gp120 retained [3]: 522 counts

LVFGLTANSDTH
COUNTS of radiolabeled gp120 retained [3]: 586 counts

LVFGLTANSDTHLLQ
COUNTS of radiolabeled gp120 retained [6]: 609 counts

LVFGLTANSDTHLLQGQS
COUNTS of radiolabeled gp120 retained [6]: 564 counts

LVISIFYHKLQSLTDVFL [STRL33 segment 53-70]
radioactive counts recorded in twenty minutes [7]: 1620.5 counts
radioactive counts recorded in twenty minutes [8]: 1780.5 counts

LVMGYQKKLRSMTDKYRL [CXCR4 segment 61-78]
radioactive counts recorded in twenty minutes [1]: 105 counts
radioactive counts recorded in twenty minutes [2]: 517 counts

LVSLPQIIYGNVFNLDKL
radioactive counts recorded in twenty minutes [7]: 91.5 counts
radioactive counts recorded in twenty minutes [8]: −15.5 counts

LWDQGNFPLIIKNLK
COUNTS of radiolabeled gp120 retained [6]: 502 counts

LWDQGNFPLIIKNLKIED
COUNTS of radiolabeled gp120 retained [6]: 582 counts

LYAFLGAKFKTSAQHALT [CXCR4 segment 301-318]
radioactive counts recorded in twenty minutes [1]: 156 counts
radioactive counts recorded in twenty minutes [2]: 568 counts

MAEHDYHEDYGFSSFNDS [STRL33 segment 1-18]
radioactive counts recorded in twenty minutes [7]: 1178.5 counts
radioactive counts recorded in twenty minutes [8]: 1320.5 counts
Binding Results For Window Length (counts bound-background), 9 (STRL33 amino terminus, 9-mer starting at the first residue of the printed sequence, background subtracted): 160 counts
Binding Results For Window Length (counts bound-background), 12 (STRL33 amino terminus, 12-mer starting at the first residue of the printed sequence, background subtracted): 625 counts
Binding Results For Window Length (counts bound-background), 15 (STRL33 amino terminus, 15-mer starting at the first residue of the printed sequence, background subtracted): 1239 counts
Binding Results For Window Length (counts bound-background), 18 (STRL33 amino terminus, 18-mer starting at the first residue of the printed sequence, background subtracted): 1386 counts

MAGISIYTSDNYTEEMGS [CXCR4 (1-18) variant E2A]
Relative % of Control (CXCR4 (1-18) alanine variants): 36 ± 0.3%

MAVFLLTQMPFNLMKFIR [STRL33 segment 237-254]
radioactive counts recorded in twenty minutes [7]: 2263.5 counts
radioactive counts recorded in twenty minutes [8]: 2842.5 counts

MAYQVSSPIYDINYYTSE [CCR5 (1-18) variant D2A]
Relative % of Control (CCR5 (1-18) alanine variants): 125 ± 8%

MCKSLLGIYTINFYTSML
radioactive counts recorded in twenty minutes [7]: 1505.5 counts
radioactive counts recorded in twenty minutes [8]: 1283.5 counts

MDAQVSSPIYDINYYTSE [CCR5 (1-18) variant Y3A]
Relative % of Control (CCR5 (1-18) alanine variants): 51 ± 2%

MDYAVSSPIYDINYYTSE [CCR5 (1-18) variant Q4A]
Relative % of Control (CCR5 (1-18) alanine variants): 104 ± 7%
percentage of binding of mutant polypeptide compared to wild-type polypeptide, gp120: 104%

MDYQASSPIYDINYYTSE [CCR5 (1-18) variant V5A]
Relative % of Control (CCR5 (1-18) alanine variants): 82 ± 3%

MDYQVASPIYDINYYTSE
Relative % of Control (CCR5 (1-18) alanine variants): 124 ± 3%

MDYQVSAPIYDINYYTSE
Relative % of Control (CCR5 (1-18) alanine variants): 56 ± 2%

MDYQVSSAIYDINYYTSE
Relative % of Control (CCR5 (1-18) alanine variants): 157 ± 2%

MDYQVSSPAYDINYYTSE [CCR5 (1-18) variant printed 19A]
Relative % of Control (CCR5 (1-18) alanine variants): 24 ± 7%

MDYQVSSPIADINYYTSE [CCR5 (1-18) variant Y10A]
Relative % of Control (CCR5 (1-18) alanine variants): 19 ± 6%
percentage of binding of mutant polypeptide compared to wild-type polypeptide, gp120: 19.2%

MDYQVSSPIYAINYYTSE [CCR5 (1-18) variant D11A]
Relative % of Control (CCR5 (1-18) alanine variants): 63 ± 22%
percentage of binding of mutant polypeptide compared to wild-type polypeptide, gp120: 62.8%

MDYQVSSPIYDANYYTSE
Relative % of Control (CCR5 (1-18) alanine variants): 14 ± 1%

MDYQVSSPIYDIAYYTSE
Relative % of Control (CCR5 (1-18) alanine variants): 253 ± 19%

MDYQVSSPIYDINAYTSE [CCR5 (1-18) variant Y14A]
Relative % of Control (CCR5 (1-18) alanine variants): 15 ± 0.3%
percentage of binding of mutant polypeptide compared to wild-type polypeptide, gp120: 14.6%

MDYQVSSPIYDINYATSE [CCR5 (1-18) variant Y15A]
Relative % of Control (CCR5 (1-18) alanine variants): 21 ± 5%
percentage of binding of mutant polypeptide compared to wild-type polypeptide, gp120: 21%

MDYQVSSPIYDINYYASE
Relative % of Control (CCR5 (1-18) alanine variants): 78 ± 34%

MDYQVSSPIYDINYYTAE
Relative % of Control (CCR5 (1-18) alanine variants): 64 ± 6%

MDYQVSSPIYDINYYTSA [CCR5 (1-18) variant E18A]
Relative % of Control (CCR5 (1-18) alanine variants): 4 ± 2%
percentage of binding of mutant polypeptide compared to wild-type polypeptide, gp120: 4.1%

MDYQVSSPIYDINYYTSE
Counts per 20′ Average-background (background subtracted): 735 counts per 20′
Relative % of Control (CCR5 (1-18) alanine variants): 100%

MEAISIYTSDNYTEEMGS
Relative % of Control (CXCR4 (1-18) alanine variants): 101 ± 3%

MEGASIYTSDNYTEEMGS
Relative % of Control (CXCR4 (1-18) alanine variants): 6 ± 0.3%

MEGIAIYTSDNYTEEMGS [CXCR4 (1-18) variant S5A]
Relative % of Control (CXCR4 (1-18) alanine variants): 133 ± 5%

MEGISAYTSDNYTEEMGS
Relative % of Control (CXCR4 (1-18) alanine variants): 2 ± 1%

MEGISIATSDNYTEEMGS
Relative % of Control (CXCR4 (1-18) alanine variants): 7 ± 0.4%

MEGISIYASDNYTEEDGS
Relative % of Control (CXCR4 (1-18) alanine variants): 97 ± 10%

MEGISIYTADNYTEEMGS
Relative % of Control (CXCR4 (1-18) alanine variants): 70 ± 4%

MEGISIYTSANYTEEMGS
Relative % of Control (CXCR4 (1-18) alanine variants): 71 ± 8%

MEGISIYTSDAYTEEMGS
Relative % of Control (CXCR4 (1-18) alanine variants): 38 ± 0.4%

MEGISIYTSDNATEEMGS
Relative % of Control (CXCR4 (1-18) alanine variants): 28 ± 2%

MEGISIYTSDNYAEEMGS
Relative % of Control (CXCR4 (1-18) alanine variants): 70 ± 6%

MEGISIYTSDNYTAEMGS
Relative % of Control (CXCR4 (1-18) alanine variants): 72 ± 1%

MEGISIYTSDNYTEAMGS
Relative % of Control (CXCR4 (1-18) alanine variants): 56 ± 7%

MEGISIYTSDNYTEEAGS
Relative % of Control (CXCR4 (1-18) alanine variants): 88 ± 4%

MEGISIYTSDNYTEEMAS
Relative % of Control (CXCR4 (1-18) alanine variants): 68 ± 8%

MEGISIYTSDNYTEEMGA
Relative % of Control (CXCR4 (1-18) alanine variants): 79 ± 1%

MEGISIYTSDNYTEEMGS
radioactive counts recorded in twenty minutes [1]: 2591 counts
radioactive counts recorded in twenty minutes [2]: 3003 counts
Relative % of Control (CXCR4 (1-18) alanine variants): 100%

MIVYFLFWAPYNIVLLLN [CCR5 segment 241-]
Counts per 20′ Average-background (background subtracted): 214 counts per 20′

MLILTCITVDRFIVVVKA
radioactive counts recorded in twenty minutes [7]: 298.5 counts
radioactive counts recorded in twenty minutes [8]: 228.5 counts

MLVILILINCKRLKSMTD [CCR5 segment 49-66]
Counts per 20′ Average-background (background subtracted): 84 counts per 20′

MNRGVPFRRLLLVLQLALLPA [human CD4 1-21]
number of radioactive decays (counts) counted: 3587 counts

MPFNLMKFIRSTHWEYYA [STRL33 segment 245-262]
radioactive counts recorded in twenty minutes [7]: 2171.5 counts
radioactive counts recorded in twenty minutes [8]: 2182.5 counts

MTWGKVTSLLIWVISLLV
radioactive counts recorded in twenty minutes [7]: −0.5 counts
radioactive counts recorded in twenty minutes [8]: −26.5 counts

MVGLILPGIVILSCYCII [CXCR4 segment 205-222]
radioactive counts recorded in twenty minutes [1]: 167 counts
radioactive counts recorded in twenty minutes [2]: 579 counts

MYLVVFVCGLVGNSLVLV [STRL33 segment 37-54]
radioactive counts recorded in twenty minutes [7]: 168.5 counts
radioactive counts recorded in twenty minutes [8]: 235.5 counts
